# Where “and” joins values, the source holds several entries; their conditions need not be identical. Identical values can stand only once. Like-named read-outs stand apart in the source and are kept apart here.
# Key:
# [1] = by volume, wet dispersion in Isopar G, sonicated 3 minutes; mesylate
# Excerpt: The particle size parameters measured in the present disclosure have been obtained by means of laser light diffraction technique, and specifically by means of a Malvern Mastersizer S particle size analyzer having characteristics as set out below. Namely, the laser source used was a 2 milliwatt Helium/neon laser (633 nm wavelength); the detection system was a Fourier Transform lens system; the sample was run using a […]; the sample unit was a sample unit for wet measurement, and particularly was a MS1-Small volume Sample Dispersion Unit stirred cell. The wet dispersion was prepared by using a solution of 1.5 g of Soybean Lecithin in 200 mL of Isopar G as a sample dispersant, and the dispersion was controlled by stirring the unit cell. […] The characterization parameters (volume distributions) were measured for at least six times for each sample, and the result is a mean of said measured values for each sample.
# A 300RF mm lens and a beam length of 2.4 mm were used. Preparation of sample dispersant: 1.5 g of Soybean Lecithin was added to 200 mL of Isopar G, and the mixture was mixed gently until Lecithin dissolved. […] The paste was delivered to the previously background and corrected measuring cell filled with dispersant (Isopar G) until the obscuration reached the desired level. The suspension was sonicated for 3 minutes. Volume distributions were obtained for at least six measures. After completing the measurements, the sample cell was emptied and cleaned, refilled with suspending medium, and the sampling procedure repeated again. For characterization, the values of D10, D50 and D90 (by volume) were specifically listed, each one being the mean of the measured values available for each characterization parameter.
# The notation Dx [also written as D(v, 0.X)] means that X % of the particles have a diameter less than a specified diameter D. Thus a D90 [or D(v, 0.9)] of 100 μm means that 90% of the particles have a diameter less than 100 μm.
# [2] = N2 at 77 K, relative pressures 0.05 to 0.3; mesylate
# Excerpt: The specific surface area values disclosed in the present disclosure have been obtained by means of a specific surface area analysis technique based on the BET (Brunauer, Emmett and Teller) theory, which is a well-accepted theory known in the art for the calculation of surface areas of solids by means of measuring their physical adsorption of gas molecules (See S. Brunauer, P. H. Emmett and E. Teller, J. Am. Chem. Soc., 1938, 60, 309). In particular, the specific surface area values measured have been calculated from the BET surface area plot obtained by measuring the quantity of nitrogen gas molecules adsorbed by a weighted amount of solid at different relative pressures (P/P0) within the range 0.05 to 0.3, at 77K. Precisely, the measurement of the adsorption of gas molecules was carried out by means of a Micromeritics™ Gemini V equipment having the characteristics as set out below. Namely, the gas used for adsorption measure was nitrogen gas. […] The sample for analysis was degassed (at 30° C. for 10 minutes and at 130° C. for 90 minutes). The determination of the adsorption of nitrogen was measured at 77K and for twelve relative pressures sufficiently dispersed within in the range of 0.05 to 0.3 (i.e. twelve absolute pressures in the range of 38.860001 mmHg to 230.464996 mmHg relative to a saturated pressure of 765.705017 mmHg).
# The sample for analysis was degassed at 30° C. for 10 minutes and at 130° C. for 90 minutes.
# [3] = Procedure: The substantial absence of agglomeration in accordance with the present invention can be determined by visual inspection and/or by optical microscopy. […] That is, the smallest agglomerate to be observed by particle size analysis would be the agglomerate resultant of the union of a single crystal with another which would lead to an increase of 100% in the D90 and/or the D50 measured value.
# The chromatographic separation was carried out in a Chiralpak IC, 5 μm, 250×4.6 mm I.D column; at 30° C.
# The mobile phase was prepared by mixing 950 mL of n-hexane, 40 mL of 2-propanol, 10 mL of ethanol, 4 mL of trifluoroacetic acid and 1 mL of diethylamine. The mixture was mixed thoroughly.
# The chromatograph was equipped with a 265 nm detector, and the flow rate was 1.4 mL per minute.
# The test samples were prepared by dissolving the appropriate amount of sample to obtain 10 mg per mL in diluent. The diluent was prepared by mixing 89 mL of mobile phase, 10 mL of 2-propanol and 1 mL of diethylamine. The injection volume was 5 μL.
# Samples were taken and analyzed after 1, 2, 3 and 6 months storage.
# [4] = 25° C.±1° C., 80%±2% relative humidity, 24 hours
# Procedure: The percentage increase in mass was calculated based on the hygroscopicity method described in the European Pharmacopoeia 5.0 (general chapter 5.11).
# [5] = WO 2008/019871 Example 8, prepared in isopropanol; cited from earlier work
# [6] = cited from earlier work
# [7] = heating at 80° C. for 72, 96 or 144 hours, and refluxing in isopropanol for 30 hours; cited from earlier work
# [8] = material with D90 of less than 6 μm stored at 25±2° C., 65±5% relative humidity, 5 days; cited from earlier work
# [9] = cited from earlier work; remark: listed apart in the source
structure (smiles),measurement,setting,value
"C#CCN[C@@H]1CCc2ccccc21.CS(=O)(=O)O [Example 1, R-(+)-N-propargyl-1-aminoindan mesylate]","Particle size D(v, 0.1)",[1],30.6 μm
same,"Particle size D(v, 0.5)",[1],89.0 μm
same,"Particle size D(v, 0.9)",[1],163.6 μm
same,Specific Surface Area (BET),[2],0.0722 m^2/g
"C#CCN[C@@H]1CCc2ccccc21.CS(=O)(=O)O [Example 2, R-(+)-N-propargyl-1-aminoindan mesylate]","Particle size D(v, 0.1)",[1],37.0 μm
same,"Particle size D(v, 0.5)",[1],118.7 μm
same,"Particle size D(v, 0.9)",[1],246.7 μm
"C#CCN[C@@H]1CCc2ccccc21.CS(=O)(=O)O [Example 3, R-(+)-N-propargyl-1-aminoindan mesylate]","Particle size D(v, 0.1)",[1],37.4 μm
same,"Particle size D(v, 0.5)",[1],159.6 μm
same,"Particle size D(v, 0.9)",[1],404.2 μm
same,Specific Surface Area (BET),[2],0.0474 m^2/g
"C#CCN[C@@H]1CCc2ccccc21.CS(=O)(=O)O [Example 4, R-(+)-N-propargyl-1-aminoindan mesylate]","Particle size D(v, 0.1)",[1],54.9 μm
same,"Particle size D(v, 0.5)",[1],208.5 μm
same,"Particle size D(v, 0.9)",[1],464.0 μm
same,Specific Surface Area (BET),[2],0.1434 m^2/g
same,Total impurities (HPLC),"[3]; 1 month, 40±2° C., 75%±5% relative humidity",<0.05%
same,Total impurities (HPLC),"[3]; 2 months, 40±2° C., 75%±5% relative humidity",<0.05%
same,Total impurities (HPLC),"[3]; 3 months, 40±2° C., 75%±5% relative humidity",<0.05%
same,Total impurities (HPLC),"[3]; 6 months, 40±2° C., 75%±5% relative humidity",<0.05%
same,Total impurities (HPLC),[3]; Initial sample,<0.05%
same,% Mass increase,[4],0.01%
same,Hygroscopicity (in words),[4],not hygroscopic material
"C#CCN[C@@H]1CCc2ccccc21.CS(=O)(=O)O [Reference Example 1, R-(+)-N-propargyl-1-aminoindan mesylate]","Particle size D(v, 0.1)",[1],17.4 μm
same,"Particle size D(v, 0.5)",[1],62.6 μm
same,"Particle size D(v, 0.9)",[1],118.0 μm
same,Specific Surface Area (BET),[2],0.3216 m^2/g
"C#CCN[C@@H]1CCc2ccccc21.CS(=O)(=O)O [Reference Example 2, R-(+)-N-propargyl-1-aminoindan mesylate]","Particle size D(v, 0.1)",[1],14.7 μm
same,"Particle size D(v, 0.5)",[1],60.2 μm
same,"Particle size D(v, 0.9)",[1],143.6 μm
same,Specific Surface Area (BET),[2],0.2490 m^2/g
"C#CCN[C@@H]1CCc2ccccc21.CS(=O)(=O)O [Reference Example 3, R-(+)-N-propargyl-1-aminoindan mesylate]","Particle size D(v, 0.1)",[1],127.5 μm
same,"Particle size D(v, 0.5)",[1],311.2 μm
same,"Particle size D(v, 0.9)",[1],611 μm and 611.1 μm
same,Specific Surface Area (BET),[2],0.0274 m^2/g
"C#CCN[C@@H]1CCc2ccccc21.CS(=O)(=O)O [rasagiline mesylate, R-(+)-N-propargyl-1-aminoindan mesylate]",Particle size d(0.1),[5],13.6±0.05 μm
same,Particle size d(0.5),[5],40.5±0.25 μm
same,Particle size d(0.9),[5],85.7±0.89 μm
same,Particles below 250 μm,[5],100%
same,Behaviour of the powder on storage,"[6]; 4 weeks at 40° C., 75% relative humidity in an opened container",transforms into a sticky powder
same,Behaviour of the powder on storage,[6]; 4 weeks at 60° C. in a closed glass bottle,agglomerates
same,Change in water content on storage,"[6]; 4 weeks storage, WO 2008/019871 Example 5",no substantial changes
same,Appearance,[7],kept an appearance of white powder
same,D90 after storage,[8],approximately 151 μm
same,d(0.9) or D90 after milling,[9]; after milling,156-189 μm
same,d(0.9) or D90 before milling,"[9]; samples containing large, irregular particles, initial",386-598 μm
